Laboratory results: publication PMC6220303 (EMBO Molecular Medicine, 2018)
“And” between values parts separate entries of the source, which are not always exact repeats. Equal values may be shown once.

How the values were obtained:
CSF Aβ40 and sAPPβ = test: Human CSF APP metabolites after single dose (serial CSF sampling); format: in vivo
Text: We investigated CSF Aβ and sAPPβ levels in humans by serial CSF sampling via an intrathecal catheter. […] Under these conditions, where Aβ production has completely stopped, the curves most likely reflect the rate of physiological clearance of Aβ40 and sAPPβ from human CSF.
(A) Changes in Aβ40 relative to baseline values. (B) Changes in sAPPβ relative to baseline values.
Human CSF was collected from an indwelling spinal catheter inserted into the lower spinal canal (in the single ascending dose (SAD) PD first in human (FIH) study) or by a lumbar puncture (in the multiple ascending dose (MAD) PD Phase I study and Phase IIa study), and by trained personnel at the site and as per their standard operating procedure (SOP). CSF Aβ38, Aβ40, Aβ42, sAPPα, and sAPPβ were quantified in human CSF with 0.2% (v/v) Tween®‐20 using validated sandwich‐based multiplexed electrochemiluminescence methods (MesoScale Discovery, […], MD, USA).

CSF Aβ40 = test: Human CSF Aβ40, Phase IIa study of 3-month duration; format: in vivo; conditions: for reduction in CSF Aβ40 concentrations: 3 months, mean ± SEM
Text: All study participants underwent CSF sampling at baseline and at the end of treatment; in addition, we collected CSF at a number of intermediate time points (n = 2–7/time point).
CSF Aβ38, Aβ40, Aβ42, sAPPα, and sAPPβ were quantified in human CSF with 0.2% (v/v) Tween®‐20 using validated sandwich‐based multiplexed electrochemiluminescence methods (MesoScale Discovery, […], MD, USA). […]
Secondary • To assess the change from baseline of CSF Aβ concentrations (Aβ1-
Objectives 38; Aβ1-40; Aβ1-42) in healthy elderly subjects over 13 weeks

[1] = test system: healthy participants ≥ 60 years; test: Adverse events after 3 months daily dosing (Appendix Table S8); format: in vivo, human
Protocol: For further details, see the Appendix Table S10 in Appendix and the accompanying clinical protocols synopsis (Appendix Table S11).
Randomized, double-blind, placebo-controlled, parallel-group study to assess the safety, Multiple-dose over 13-tolerability, pharmacokinetics ≥ 60 yrs 100 / 24 weeks (2, 10, 35 or 85 mg and pharmacodynamics of q.d. CNP520 vs. placebo) multiple oral doses of CNP520 in healthy elderly participants
Title A randomized, double-blind, placebo-controlled, parallel-group study to assess the safety, tolerability, pharmacokinetics and pharmacodynamics of multiple oral doses of CNP520 in healthy elderly subjects
Brief title Dose-ranging safety and tolerability study in subjects ≥60 years of age Sponsor and Clinical Novartis
Study type Interventional […]
rationale months to allow initiation future long-term efficacy trials in patients with Alzheimer’s disease (AD) or in subjects at risk of AD. In addition, data relevant for Pharmacokinetic/Pharmacodynamic modeling will be obtained in order to define the target dose in subsequent efficacy studies.
Primary Objective(s) To determine the safety and tolerability of multiple, once-daily oral doses of […]
Secondary • To assess the change from baseline of CSF Aβ concentrations (Aβ1-Objectives 38; Aβ1-40; Aβ1-42) in healthy elderly subjects over 13 weeks treatment with CNP520 as compared to placebo

[2] = after a 750 mg CNP520 dose, n=6

## C[C@@]1(c2nc(NC(=O)c3ncc(C(F)(F)F)cc3Cl)ccc2F)CO[C@@](C)(C(F)(F)F)C(N)=N1 [CNP520]
CSF Aβ40 and sAPPβ; 750-mg single dose, mean ± SD
  maximum reduction in CSF Aβ40 from baseline: 79.1 ± 8.9%
CSF Aβ40 and sAPPβ; [2]
  first-order rate constant k, Aβ40 in human CSF: 0.068 ± 0.002 h⁻¹
  first-order rate constant k, sAPPβ in human CSF: 0.043 ± 0.004 h⁻¹
CSF Aβ40; 2-mg daily dose
  reduction in CSF Aβ40 concentrations: 22.6 ± 2.1%
CSF Aβ40; 85-mg daily dose
  reduction in CSF Aβ40 concentrations: 90.7 ± 0.37%
CSF Aβ40; corrected for plasma protein binding, human plasma
  ED50(free): 3.3 nM
CSF Aβ40; human plasma, Phase IIa
  ED50: total plasma CNP520 concentration at fifty percent reduction of CSF Aβ40: 37.5 ± 2.9 ng/ml and 73.5 ± 5.8 nM
[1]; 2 mg daily, N = 25
  AE incidence: Blood and lymphatic system disorders: 0 (0.0) n (%)
  AE incidence: Ear and labyrinth disorders: 0 (0.0) n (%)
  AE incidence: Eye disorders: 2 (8.0) n (%)
  AE incidence: Gastrointestinal disorders: 7 (28.0) n (%)
  AE incidence: General disorders and administration site conditions: 1 (4.0) n (%)
  AE incidence: Immune system disorders: 0 (0.0) n (%)
  AE incidence: Infections and infestations: 3 (12.0) n (%)
  AE incidence: Injury, poisoning and procedural complications: 7 (28.0) n (%)
  AE incidence: Investigations: 2 (8.0) n (%)
  AE incidence: Metabolism and nutrition disorders: 1 (4.0) n (%)
  AE incidence: Neoplasms benign, malignant & unspecified (incl. cysts and polyps): 1 (4.0) n (%)
  AE incidence: Nervous system disorders: 13 (52.0) n (%)
  AE incidence: Psychiatric disorders: 1 (4.0) n (%)
  AE incidence: Renal and urinary disorders: 0 (0.0) n (%)
  AE incidence: Reproductive system and breast disorders: 0 (0.0) n (%)
  AE incidence: Respiratory, thoracic and mediastinal disorders: 6 (24.0) n (%)
  AE incidence: Skin and subcutaneous tissue disorders: 3 (12.0) n (%)
  AE incidence: Vascular disorders: 0 (0.0) n (%)
  Participants with at least one AE: 19 (76.0) n (%)
[1]; 10 mg daily, N = 25
  AE incidence: Blood and lymphatic system disorders: 0 (0.0) n (%)
  AE incidence: Ear and labyrinth disorders: 1 (4.0) n (%)
  AE incidence: Eye disorders: 5 (20.0) n (%)
  AE incidence: Gastrointestinal disorders: 9 (36.0) n (%)
  AE incidence: General disorders and administration site conditions: 2 (8.0) n (%)
  AE incidence: Immune system disorders: 0 (0.0) n (%)
  AE incidence: Infections and infestations: 10 (40.0) n (%)
  AE incidence: Injury, poisoning and procedural complications: 11 (44.0) n (%)
  AE incidence: Investigations: 0 (0.0) n (%)
  AE incidence: Metabolism and nutrition disorders: 1 (4.0) n (%)
  AE incidence: Neoplasms benign, malignant & unspecified (incl. cysts and polyps): 1 (4.0) n (%)
  AE incidence: Nervous system disorders: 10 (40.0) n (%)
  AE incidence: Psychiatric disorders: 2 (8.0) n (%)
  AE incidence: Renal and urinary disorders: 2 (8.0) n (%)
  AE incidence: Reproductive system and breast disorders: 2 (8.0) n (%)
  AE incidence: Respiratory, thoracic and mediastinal disorders: 6 (24.0) n (%)
  AE incidence: Skin and subcutaneous tissue disorders: 7 (28.0) n (%)
  AE incidence: Vascular disorders: 2 (8.0) n (%)
  Participants with at least one AE: 22 (88.0) n (%)
[1]; 35 mg daily, N = 26
  AE incidence: Blood and lymphatic system disorders: 1 (3.8) n (%)
  AE incidence: Ear and labyrinth disorders: 1 (3.8) n (%)
  AE incidence: Eye disorders: 0 (0.0) n (%)
  AE incidence: Gastrointestinal disorders: 9 (34.6) n (%)
  AE incidence: General disorders and administration site conditions: 4 (15.4) n (%)
  AE incidence: Immune system disorders: 0 (0.0) n (%)
  AE incidence: Infections and infestations: 6 (23.1) n (%)
  AE incidence: Injury, poisoning and procedural complications: 10 (38.5) n (%)
  AE incidence: Investigations: 1 (3.8) n (%)
  AE incidence: Metabolism and nutrition disorders: 0 (0.0) n (%)
  AE incidence: Neoplasms benign, malignant & unspecified (incl. cysts and polyps): 0 (0.0) n (%)
  AE incidence: Nervous system disorders: 9 (34.6) n (%)
  AE incidence: Psychiatric disorders: 1 (3.8) n (%)
  AE incidence: Renal and urinary disorders: 2 (7.7) n (%)
  AE incidence: Reproductive system and breast disorders: 0 (0.0) n (%)
  AE incidence: Respiratory, thoracic and mediastinal disorders: 5 (19.2) n (%)
  AE incidence: Skin and subcutaneous tissue disorders: 2 (7.7) n (%)
  AE incidence: Vascular disorders: 0 (0.0) n (%)
  Participants with at least one AE: 21 (80.8) n (%)
[1]; 85 mg daily, N = 24
  AE incidence: Blood and lymphatic system disorders: 0 (0.0) n (%)
  AE incidence: Ear and labyrinth disorders: 1 (4.2) n (%)
  AE incidence: Eye disorders: 4 (16.7) n (%)
  AE incidence: Gastrointestinal disorders: 4 (16.7) n (%)
  AE incidence: General disorders and administration site conditions: 5 (20.8) n (%)
  AE incidence: Immune system disorders: 1 (4.2) n (%)
  AE incidence: Infections and infestations: 4 (16.7) n (%)
  AE incidence: Injury, poisoning and procedural complications: 8 (33.3) n (%)
  AE incidence: Investigations: 1 (4.2) n (%)
  AE incidence: Metabolism and nutrition disorders: 0 (0.0) n (%)
  AE incidence: Neoplasms benign, malignant & unspecified (incl. cysts and polyps): 0 (0.0) n (%)
  AE incidence: Nervous system disorders: 8 (33.3) n (%)
  AE incidence: Psychiatric disorders: 2 (8.3) n (%)
  AE incidence: Renal and urinary disorders: 1 (4.2) n (%)
  AE incidence: Reproductive system and breast disorders: 0 (0.0) n (%)
  AE incidence: Respiratory, thoracic and mediastinal disorders: 5 (20.8) n (%)
  AE incidence: Skin and subcutaneous tissue disorders: 6 (25.0) n (%)
  AE incidence: Vascular disorders: 1 (4.2) n (%)
  Participants with at least one AE: 18 (75.0) n (%)
[1]; all doses, N = 100
  AE incidence: Blood and lymphatic system disorders: 1 (1.0) n (%)
  AE incidence: Ear and labyrinth disorders: 3 (3.0) n (%)
  AE incidence: Eye disorders: 11 (11.0) n (%)
  AE incidence: Gastrointestinal disorders: 29 (29.0) n (%)
  AE incidence: General disorders and administration site conditions: 12 (12.0) n (%)
  AE incidence: Immune system disorders: 1 (1.0) n (%)
  AE incidence: Infections and infestations: 23 (23.0) n (%)
  AE incidence: Injury, poisoning and procedural complications: 36 (36.0) n (%)
  AE incidence: Investigations: 4 (4.0) n (%)
  AE incidence: Metabolism and nutrition disorders: 2 (2.0) n (%)
  AE incidence: Neoplasms benign, malignant & unspecified (incl. cysts and polyps): 2 (2.0) n (%)
  AE incidence: Nervous system disorders: 40 (40.0) n (%)
  AE incidence: Psychiatric disorders: 6 (6.0) n (%)
  AE incidence: Renal and urinary disorders: 5 (5.0) n (%)
  AE incidence: Reproductive system and breast disorders: 2 (2.0) n (%)
  AE incidence: Respiratory, thoracic and mediastinal disorders: 22 (22.0) n (%)
  AE incidence: Skin and subcutaneous tissue disorders: 18 (18.0) n (%)
  AE incidence: Vascular disorders: 3 (3.0) n (%)
  Participants with at least one AE: 80 (80.0) n (%)
[1]; human, in vivo
  AE incidence: Musculoskeletal and connective tissue disorders: 27 (27.0) n (%)
